In patent US8383581B2, “Short-chain peptides as parathyroid hormone (PTH) receptor agonist” (Cadila Healthcare Limited, priority 2009, dated 2013):
Where a SMILES comes first, the peptide text is derived from it. [ ]: non-standard residue; d: D form. ξ: configuration not given here. ξBip(2'-Et-4'-OMe) = CCc1cc(OC)ccc1-c1ccc(CC(N)C(=O)O)cc1; ξαMePhe(2,6-F2) = CC(N)(Cc1c(F)cccc1F)C(=O)O; ξαMe(hhPhe) = CC(N)(CCCc1ccccc1)C(=O)O; hArg = N=C(N)NCCCC[C@H](N)C(=O)O; Cit = NC(=O)NCCC[C@H](N)C(=O)O; Nle = CCCC[C@H](N)C(=O)O; Orn = NCCC[C@H](N)C(=O)O; Aib = CC(C)(N)C(=O)O

Test system: ovariectomised (OVX) rats
Test: In vivo anti-osteoporosis activity testing in OVX rat model (serum calcium, phosphate, bone parameters)
Parameters: species or system Female Wistar Rats
Settings: po
Procedure, shortened: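 Female Wistar rats aged 10–11 weeks were bilaterally ovariectomised and rested 4 weeks, then treated for 6 weeks with short-chain peptides, PTH standard or nothing (n=9). Fasting overnight urine and serum taken 24 h post-dose were assayed for calcium, phosphate, acid phosphatase and TRAP. Femur, tibia and L5 underwent histomorphometry.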

CCCC[C@H](NC(=O)[C@H](CC(C)C)NC(=O)[C@H](CCC(N)=O)NC(=O)[C@@H](NC(=O)[C@H](CCC(=O)O)NC(=O)C(C)(C)NC(=O)[C@@H](NC(=O)C(C)(C)NC(=O)[C@@H](N)C(C)C)C(C)C)[C@@H](C)CC)C(=O)N[C@@H](Cc1c[nH]cn1)C(=O)N[C@@H](CCC(N)=O)C(=O)N[C@@H](CCCCNC(=N)N)C(=O)N[C@@H](C)C(=O)N[C@@H](CCCCN)C(=O)NC(Cc1ccc(-c2ccc(OC)cc2CC)cc1)C(=O)NC(C)(CCCc1ccccc1)C(N)=O (stereo partly shown) [Seq. ID. 893] (H-V[Aib]V[Aib]EIQL[Nle]HQ[hArg]AK[ξBip(2'-Et-4'-OMe)][ξαMe(hhPhe)]-NH2)
% decrease in serum PO4 Levels (mg/dl) vs control (0.3 mg/kg): 89% | % increase in serum Ca^2+ Levels (mg/dl) vs control (0.3 mg/kg): 108%

CCCC[C@H](NC(=O)C(C)(Cc1c(F)cccc1F)NC(=O)[C@H](CCC(N)=O)NC(=O)[C@@H](NC(=O)[C@H](CCC(=O)O)NC(=O)C(C)(C)NC(=O)[C@@H](NC(=O)C(C)(C)N)C(C)C)[C@@H](C)CC)C(=O)N[C@@H](Cc1c[nH]cn1)C(=O)N[C@@H](CCC(N)=O)C(=O)N[C@@H](CCCN)C(=O)N[C@@H](C)C(=O)N[C@@H](CCCNC(N)=O)C(=O)NC(C)(Cc1c(F)cccc1F)C(N)=O (stereo partly shown) [Seq. ID. 293] (H-[Aib]V[Aib]EIQ[ξαMePhe(2,6-F2)][Nle]HQ[Orn]A[Cit][ξαMePhe(2,6-F2)]-NH2)
% decrease in serum PO4 Levels (mg/dl) vs control (5 mg/kg): 75% | % increase in serum Ca^2+ Levels (mg/dl) vs control (5 mg/kg): 67%
